Measurements: patent US7109203B2, “Sulfonamide derivatives” (Novartis AG, priority 2001, dated 2006)
Where a SMILES comes first, the peptide text is derived from it. [ ]: non-standard residue; d: D form. Oic = O=C(O)[C@@H]1C[C@@H]2CCCC[C@@H]2N1; Hyp = O=C(O)[C@@H]1C[C@@H](O)CN1; dTic = O=C(O)[C@H]1Cc2ccccc2CN1; 2Thi = N[C@@H](Cc1cccs1)C(=O)O

Molecular target: T1, human bradykinin B1 receptor (Homo sapiens, UniProt P46663)
T1 construct: To upregulate expression of the B1 receptor the cells are treated with 100 units/ml of IL-1β; endogenous in cells; host or cells: WI-38 cells treated with 100 units/ml IL-1β for 3 hours
T1 sequence (P46663 1-353): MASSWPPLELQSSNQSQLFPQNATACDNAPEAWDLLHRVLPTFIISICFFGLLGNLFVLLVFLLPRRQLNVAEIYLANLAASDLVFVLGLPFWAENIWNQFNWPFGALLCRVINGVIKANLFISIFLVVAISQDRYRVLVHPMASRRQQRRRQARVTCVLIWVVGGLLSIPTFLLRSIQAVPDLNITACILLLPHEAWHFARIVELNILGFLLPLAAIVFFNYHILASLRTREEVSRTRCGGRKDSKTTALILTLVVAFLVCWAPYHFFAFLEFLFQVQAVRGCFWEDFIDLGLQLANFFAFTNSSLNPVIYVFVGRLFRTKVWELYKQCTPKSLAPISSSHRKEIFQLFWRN
Experiment: Test I: Bradykinin Receptor Binding Assay ([3H]-desArg10kallidin displacement, IL-1β-treated WI-38 cells)
Conditions: displacement of [3H]-desArg10kallidin, KI from IC50 by Cheng-Prussoff equation
Protocol: WI-38 cells are grown in Dulbecco's Modified Eagle Medium s supplemented with 1% non-essential amino acids, 2 mM L-glutamine, 100 IU/ml penicillin, 100 μg/ml streptomycin and 10% foetal calf serum. The cells are grown in 175 cm^2 tissue culture flasks and split approximately 1–2 times a week at a ratio of 1:2 using trypsin to detach the cells. WI-38 cells are plated onto 24 well plates at approximately 50,000 cells per well and grown overnight. To upregulate expression of the B1 receptor the cells are treated with 100 units/ml of IL-1β for 3 hours prior to the assay. The binding buffer is 10 mM HEPES in Hank's Balanced Salt solution pH 7.4 plus 1 mM phenanthroline and 0.14 mg/ml bacitracin. […] Non-specific binding is determined with 3 μM desArg^10kallidin. […] The cells are solubilised with 0.2% SDS and the amount of radioactivity in the samples determined by liquid scintillation counting. […]
Results are calculated by subtracting the value for non-specific binding from all values and calculating the amount of binding for each concentration of compound as a percentage of the specific binding with no compound. The IC50 values are calculated in ORIGIN using a logistic fit. KI values are calculated from the IC50 values using the Cheng-Prussoff equation (KI=IC50/(1+([RL]/Kd)) where [RL] is the radioligand concentration.

Compound | Ki [nM]
O=C(O)CN(CCOc1ccc2c(c1)CCC2)S(=O)(=O)c1ccc(Br)cc1Cl [Example 5, {(4-bromo-2-chloro-benzenesulfonyl)-[2-(indan-5-yloxy)-ethyl]-amino}-acetic acid] | ~300
N=C(N)NCCC[C@@H](N)C(=O)N[C@@H](CCCNC(=N)N)C(=O)N1CCC[C@H]1C(=O)N1C[C@H](O)C[C@H]1C(=O)NCC(=O)N[C@@H](Cc1cccs1)C(=O)N[C@@H](CO)C(=O)N1Cc2ccccc2C[C@@H]1C(=O)N1[C@H](C(=O)O)C[C@@H]2CCCC[C@@H]21 [desArg^10HOE140, D-Arg-[Hyp^3, Thi^5, D-Tic^7, Oic^8]desArg^9 bradykinin] (H-[dR]RP[Hyp]G[2Thi]S[dTic][Oic]-OH; N-terminus and C-terminus assumed) | 63
